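48-hour exposure; five concentrations; linearly interpolated endpoints. TGI is the concentration that stops growth completely.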
Assays:
Experiment in all cases: inhibition of tumour cell growth, NCI panel, 48 h
NCI-H23 lung = test system: NCI-H23 lung
LOX IMVI melanoma = test system: LOX IMVI melanoma
SF-539 CNS = test system: SF-539 CNS
CCRF-CEM leukemia = test system: CCRF-CEM leukemia
NCI-H226 lung = test system: NCI-H226 lung
ACHN renal = test system: ACHN renal
SNB-75 CNS = test system: SNB-75 CNS
CAKI-1 renal = test system: CAKI-1 renal
MCF7 breast = test system: MCF7 breast
DU-145 prostate = test system: DU-145 prostate
HOP-92 NSCLC = test system: HOP-92 NSCLC

Row | Compound | TGI (NCI-H23 lung) [µM] | TGI (LOX IMVI melanoma) [µM] | TGI (SF-539 CNS) [µM] | TGI (CCRF-CEM leukemia) [µM] | TGI (NCI-H226 lung) [µM] | TGI (ACHN renal) [µM] | TGI (SNB-75 CNS) [µM] | TGI (CAKI-1 renal) [µM] | TGI (MCF7 breast) [µM] | TGI (DU-145 prostate) [µM] | TGI (HOP-92 NSCLC) [µM]
1 | CC(C)(C)S(=O)OC12CC3CC(CC(C3)C1)C2 (stereo not given) | > 100 | > 100 | > 100 | > 100 | > 100 | > 100 | > 100 | – | – | – | –
2 | O=c1ccn(C2OC(CN(O)CCC3C(CO)OC(n4ccc(=O)[nH]c4=O)C3O)C(O)C2O)c(=O)[nH]1 (stereo not given) | > 100 | – | – | > 100 | > 100 | > 100 | > 100 | > 100 | > 100 | > 100 | > 100
3 | Cc1cc2c(cc1Cl)SC(NNc1ccc([N+](=O)[O-])cc1)=NS2(=O)=O | > 10 | > 10 | > 10 | > 10 | > 10 | > 10 | > 10 | > 10 | > 10 | > 10 | –
4 | CCc1cc2c(oc3cc(C)ccc32)c(=O)n1C | > 10 | > 10 | > 10 | > 10 | > 10 | > 10 | > 10 | – | > 10 | > 10 | > 10
5 | N#Cc1c(N2CCOCC2)[nH]c(=O)c(C(c2c(Cl)cccc2Cl)c2c(O)c(C#N)c(N3CCOCC3)[nH]c2=O)c1O | 32.8 | 25.6 | 34.9 | 66.8 | 37.5 | 29.6 | – | 33.2 | 34.2 | 69.2 | 37.8
6 | CCOP(=O)(OCC)/C(C#N)=C/c1c[nH]c2ccccc12 | > 100 | > 100 | > 100 | – | > 100 | > 100 | > 100 | > 100 | > 100 | > 100 | > 100
7 | COc1ccc2c(c1)CCC(OS(=O)(=O)CC13CCC(CC1=O)C3(C)C)C2=O (stereo not given) | 36.1 | 32.1 | 41.6 | > 100 | 65.2 | > 100 | > 100 | > 100 | – | – | 93.2
8 | CC1=NN=C(N)NC1=CC(Sc1ccc(Cl)cc1)c1c(O)ccc2ccccc12 (stereo not given) | 51.6 | > 65.2 | – | 31.5 | 14 | 28.1 | 70.2 | > 69.6 | 73.9 | > 84.6 | > 78.5
9 | CN(C)Cc1cc(C(C)(C)C)cc(C2CCCCC2)c1O | 72.2 | 28.5 | 22.8 | 27.1 | 31.2 | 28.9 | 22.1 | 35 | 36.4 | 27.8 | –
10 | N#Cc1sc2c(c1O)c(=O)n(-c1ccccc1)c(=S)n2-c1ccccc1 | > 100 | > 100 | – | – | > 100 | > 100 | > 100 | – | > 100 | > 100 | > 100
11 | CC(=O)c1sc(=N)n(-c2c(C)cccc2C)c1C | > 100 | > 100 | > 100 | > 100 | > 100 | > 100 | > 100 | – | > 100 | > 100 | –
12 | CC1=C(C(=O)OC(C)C)C(c2ccccc2C(F)(F)F)C(C(=O)OC(CO[N+](=O)[O-])CO[N+](=O)[O-])=C(C)N1 (stereo not given) | > 100 | 21.1 | 23.2 | 11.1 | 38.5 | 22.1 | 16.7 | 38.5 | 72.2 | > 100 | –
13 | O=C1NC2(CCN(CCCC3(c4ccc(F)cc4)OCCO3)CC2)Oc2ccccc21 | > 100 | > 100 | > 100 | > 100 | > 100 | > 100 | > 100 | – | > 100 | > 100 | > 100
14 | CC(=O)ON(C(C)=O)c1ccc(-c2nc3ccccc3s2)cc1C | > 100 | > 100 | > 100 | > 100 | > 100 | > 100 | > 100 | > 100 | – | > 100 | > 100
15 | O=C(CCN1CCOCC1)C(=Cc1ccccc1)C(=O)CCN1CCOCC1 | 7.92 | 4.29 | 10 | 7.84 | 29.4 | – | 29.7 | 13.5 | 13.4 | – | 4.06
16 | COc1ccc(N=[N+]([O-])c2ccc(OC)cc2)cc1 | > 100 | – | – | – | – | > 100 | > 100 | > 100 | > 100 | > 100 | > 100
17 | C[N+](C)=c1nc(N2CCc3ccccc3C2)ss1 | – | – | > 100 | > 100 | > 100 | > 100 | > 100 | > 100 | – | – | –
18 | c1ccc2cc3c(cc2c1)nc1ccccn13 | > 100 | – | > 100 | > 100 | > 100 | > 100 | > 100 | – | > 100 | > 100 | > 100
19 | O=C1c2ccccc2-c2c1c(-c1cccc(Br)c1)nc1ccc3ccccc3c21 | > 100 | > 100 | > 100 | > 100 | > 100 | > 100 | > 100 | > 100 | > 100 | > 100 | –
20 | CC(=O)NNc1nc(C)c(C(=O)NNC(=O)C(=O)Nc2c(C)cccc2C(C)(C)C)s1 | > 100 | > 100 | > 100 | 69.9 | > 100 | > 100 | > 100 | > 100 | – | – | > 100
21 | CCc1n[nH]c(=O)n1CCO | > 100 | > 100 | > 100 | – | > 100 | > 100 | – | > 100 | > 100 | > 100 | > 100
22 | N#CCCN(CCN(CCC#N)C(=O)Nc1ccccc1)C(=O)Nc1ccccc1 | > 100 | > 100 | – | > 100 | > 100 | > 100 | 47.8 | – | > 100 | > 100 | > 100

From PubChem BioAssay (NCI)
